The source made the active and inactive calls. The calls are words filed in the database; no cut-off is given here.
molecular target: T1, Cannabinoid receptor 2 (Homo sapiens, UniProt P34972); experiment: Partial agonist activity at human CB2 receptor expressed in CHO-K1 cells co-transfected with human Galpha16 assessed as intracellular calcium flux at 10 uM; type: functional, cell-based; conditions: filed as partial agonist
T1 sequence (P34972 whole entry): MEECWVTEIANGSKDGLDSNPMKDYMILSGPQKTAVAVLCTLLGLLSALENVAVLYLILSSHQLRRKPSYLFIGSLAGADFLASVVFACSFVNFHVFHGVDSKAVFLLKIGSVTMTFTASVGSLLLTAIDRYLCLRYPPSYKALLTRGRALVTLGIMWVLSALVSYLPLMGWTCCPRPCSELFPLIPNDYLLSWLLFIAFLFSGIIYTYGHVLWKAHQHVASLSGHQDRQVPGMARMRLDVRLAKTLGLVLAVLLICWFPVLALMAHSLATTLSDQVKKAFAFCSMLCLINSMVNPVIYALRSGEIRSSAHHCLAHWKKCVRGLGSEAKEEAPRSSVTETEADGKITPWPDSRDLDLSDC

Q: How did the Activity turn out when `CC(C)(CO)NC(=O)c1cc(-c2cccs2)n(-c2ccc(Cl)cc2)n1` was run?
A: Weak_effect

Q: With `CCCCn1nc(C(=O)NC(C)(C)CO)cc1-c1cccn1C(C)C` as the compound, how does the Activity read?
A: Weak_effect

Q: With `CC(C)(CO)NC(=O)c1cc(-c2cccs2)n(-c2ccc(F)cc2)n1` as the compound, how does the Activity read?
A: Weak_effect

Q: With `Cc1ccc(-n2nc(C(=O)NC(C)(C)CO)cc2-c2cccs2)cc1` as the compound, how does the Activity read?
A: Weak_effect

molecular target: T2, Cannabinoid receptor 1 (Homo sapiens, UniProt P21554); experiment: Agonist activity at human CB1 receptor expressed in CHO-K1 cells co-transfected with human Galpha16 assessed as intracellular calcium flux; type: functional, cell-based; conditions: not given
T2 sequence (P21554 whole entry): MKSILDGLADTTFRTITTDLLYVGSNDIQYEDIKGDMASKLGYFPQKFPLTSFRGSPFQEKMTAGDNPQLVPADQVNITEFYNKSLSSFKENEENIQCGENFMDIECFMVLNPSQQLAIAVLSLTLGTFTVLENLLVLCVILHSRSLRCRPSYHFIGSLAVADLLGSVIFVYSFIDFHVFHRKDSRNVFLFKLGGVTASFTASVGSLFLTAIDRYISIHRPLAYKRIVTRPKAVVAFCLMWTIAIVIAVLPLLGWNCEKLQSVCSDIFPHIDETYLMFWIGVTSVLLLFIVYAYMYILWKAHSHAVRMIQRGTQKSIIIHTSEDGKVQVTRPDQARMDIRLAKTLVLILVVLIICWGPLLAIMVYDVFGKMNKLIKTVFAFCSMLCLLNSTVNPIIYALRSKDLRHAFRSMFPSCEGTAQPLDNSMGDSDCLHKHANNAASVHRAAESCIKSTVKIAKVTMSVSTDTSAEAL

Q: `CC(C)(CO)NC(=O)c1cc(-c2cccs2)n(-c2ccc(Cl)cc2)n1` was tested. Which EC50 did it give?
A: > 100 µM

Q: For `CCCCCn1nc(C(=O)NC(C)(C)CO)cc1-c1ccc(Cl)s1`, which EC50 is on record?
A: > 100 µM

Q: With `CCCCCn1nc(C(=O)NC(C)(C)CO)cc1-c1ccnn1C` as the compound, how does the EC50 read?
A: > 100 µM

Q: How did the EC50 turn out when `CCCCCn1nc(C(=O)NC(C)(C)CO)cc1-c1ccsc1` was run?
A: > 100 µM

Q: How did the EC50 turn out when `CCCCCn1nc(C(=O)NC(C)(C)CO)cc1-c1cc(Cl)cs1` was run?
A: > 100 µM

Q: `CCCCn1nc(C(=O)NC(C)(C)CO)cc1-c1cccn1C(C)C` was tested. Which EC50 did it give?
A: > 100 µM

Q: Which EC50 does the source give for `CC(C)(CO)NC(=O)c1cc(-c2cccs2)n(-c2ccc(F)cc2)n1` here?
A: > 100 µM

Q: For `Cc1ccc(-n2nc(C(=O)NC(C)(C)CO)cc2-c2cccs2)cc1`, which EC50 is on record?
A: > 100 µM

molecular target: T1, Cannabinoid receptor 2; experiment: Agonist activity at human CB2 receptor expressed in CHO-K1 cells co-transfected with human Galpha16 assessed as intracellular calcium flux; type: functional, cell-based; conditions: not given

Q: How did the EC50 turn out when `CC(C)(CO)NC(=O)c1cc(-c2cccs2)n(-c2ccc(Cl)cc2)n1` was run?
A: 0.788 µM

Q: For `CCCCCn1nc(C(=O)NC(C)(C)CO)cc1-c1ccc(Cl)s1`, which EC50 is on record?
A: > 100 µM

Q: `CCCCCn1nc(C(=O)NC(C)(C)CO)cc1-c1ccnn1C` was tested. Which EC50 did it give?
A: > 100 µM

Q: `CCCCCn1nc(C(=O)NC(C)(C)CO)cc1-c1ccsc1` was tested. Which EC50 did it give?
A: 0.141 µM

Q: For `CCCCCn1nc(C(=O)NC(C)(C)CO)cc1-c1cc(Cl)cs1`, which EC50 is on record?
A: > 100 µM

Q: For `CCCCn1nc(C(=O)NC(C)(C)CO)cc1-c1cccn1C(C)C`, which EC50 is on record?
A: > 100 µM

Q: How did the EC50 turn out when `CC(C)(CO)NC(=O)c1cc(-c2cccs2)n(-c2ccc(F)cc2)n1` was run?
A: 0.852 µM

Q: Which EC50 does the source give for `Cc1ccc(-n2nc(C(=O)NC(C)(C)CO)cc2-c2cccs2)cc1` here?
A: 1.04 µM

molecular target: T1, Cannabinoid receptor 2; experiment: Agonist activity at human CB2 receptor expressed in CHO-K1 cells co-transfected with human Galpha16 assessed as intracellular calcium flux at 10 uM relative to control; type: functional, cell-based; conditions: filed as agonist

Q: For `CC(C)(CO)NC(=O)c1cc(-c2cccs2)n(-c2ccc(Cl)cc2)n1`, which Emax is on record?
A: 82%

Q: How did the Emax turn out when `CCCCCn1nc(C(=O)NC(C)(C)CO)cc1-c1ccsc1` was run?
A: 50%

Q: How did the Emax turn out when `CC(C)(CO)NC(=O)c1cc(-c2cccs2)n(-c2ccc(F)cc2)n1` was run?
A: 48%

Q: Which Emax does the source give for `Cc1ccc(-n2nc(C(=O)NC(C)(C)CO)cc2-c2cccs2)cc1` here?
A: 45%

molecular target: T1, Cannabinoid receptor 2; experiment: Antagonist activity at human CB2 receptor expressed in CHO-K1 cells co-transfected with human Galpha16 assessed as intracellular calcium flux; type: functional, cell-based; conditions: not given

Q: `CC(C)(CO)NC(=O)c1cc(-c2cccs2)n(-c2ccc(Cl)cc2)n1` was tested. Which IC50 did it give?
A: > 100 µM

Q: `CCCCCn1nc(C(=O)NC(C)(C)CO)cc1-c1ccc(Cl)s1` was tested. Which IC50 did it give?
A: 0.0322 µM

Q: `CCCCCn1nc(C(=O)NC(C)(C)CO)cc1-c1ccnn1C` was tested. Which IC50 did it give?
A: > 100 µM

Q: How did the IC50 turn out when `CCCCCn1nc(C(=O)NC(C)(C)CO)cc1-c1ccsc1` was run?
A: > 100 µM

Q: Which IC50 does the source give for `CCCCCn1nc(C(=O)NC(C)(C)CO)cc1-c1cc(Cl)cs1` here?
A: 0.0346 µM

Q: With `CCCCn1nc(C(=O)NC(C)(C)CO)cc1-c1cccn1C(C)C` as the compound, how does the IC50 read?
A: > 100 µM

Q: `CC(C)(CO)NC(=O)c1cc(-c2cccs2)n(-c2ccc(F)cc2)n1` was tested. Which IC50 did it give?
A: > 100 µM

Q: With `Cc1ccc(-n2nc(C(=O)NC(C)(C)CO)cc2-c2cccs2)cc1` as the compound, how does the IC50 read?
A: > 100 µM

molecular target: T2, Cannabinoid receptor 1; experiment: Antagonist activity at human CB1 receptor expressed in CHO-K1 cells co-transfected with human Galpha16 assessed as intracellular calcium flux; type: functional, cell-based; conditions: not given

Q: `CC(C)(CO)NC(=O)c1cc(-c2cccs2)n(-c2ccc(Cl)cc2)n1` was tested. Which IC50 did it give?
A: > 100 µM

Q: `CCCCCn1nc(C(=O)NC(C)(C)CO)cc1-c1ccc(Cl)s1` was tested. Which IC50 did it give?
A: > 100 µM

Q: With `CCCCCn1nc(C(=O)NC(C)(C)CO)cc1-c1ccnn1C` as the compound, how does the IC50 read?
A: > 100 µM

Q: Which IC50 does the source give for `CCCCCn1nc(C(=O)NC(C)(C)CO)cc1-c1ccsc1` here?
A: > 100 µM

Q: How did the IC50 turn out when `CCCCCn1nc(C(=O)NC(C)(C)CO)cc1-c1cc(Cl)cs1` was run?
A: > 100 µM

Q: With `CCCCn1nc(C(=O)NC(C)(C)CO)cc1-c1cccn1C(C)C` as the compound, how does the IC50 read?
A: > 100 µM

Q: Which IC50 does the source give for `CC(C)(CO)NC(=O)c1cc(-c2cccs2)n(-c2ccc(F)cc2)n1` here?
A: > 100 µM

Q: `Cc1ccc(-n2nc(C(=O)NC(C)(C)CO)cc2-c2cccs2)cc1` was tested. Which IC50 did it give?
A: > 100 µM

molecular target: T1, Cannabinoid receptor 2; experiment: Agonist activity at human CB2 receptor expressed in CHO-K1 cells co-transfected with human Galpha16 assessed as intracellular calcium flux at 10 uM; type: functional, cell-based; conditions: not given

Q: How did the Activity turn out when `CCCCn1nc(C(=O)NC(C)(C)CO)cc1-c1cccn1C(C)C` was run?
A: inactive
